Test results: patent US20230212122A1, “MITOCHONDRIAL TARGETING COMPOUNDS FOR THE TREATMENT OF ASSOCIATED DISEASES” (The Regents of the University of Michigan, priority 2020, published 2023)

Test system: MIA PaCa-2 cells
Assay: MTT assay, cancer cell growth inhibition (MIA PaCa-2)
Type: cell-based
Conditions: Homo sapiens, MIA PaCa-2, 168 h, 7 days of treatment, read-out: MiaPaCa IC50
Description: Measurement of cancer cell growth inhibition of the compounds of invention Cytotoxicity of the compounds was assessed by MTT assay. In brief, MIA PaCa-2 cells or BxPc3 cells were seeded in 96-well microtitre plates at density of 200 cells/well. After overnight attachment, cells were treated with compounds at indicated concentration. After 7 days of treatment, MTT solution (3 mg/ml, 20 μl) was added to each well and cells were incubated for 3 h at 37° C. After incubation, media from each well was removed and the dark blue formazan crystals formed by live cells were dissolved in DMSO ([…] per well). The absorbance intensity was measured at 570 nm on a microplate reader (Molecular Devices, Sunnyvale, Calif., USA). The half maximal inhibitory concentration (IC50) value were calculated using 4 or 6 dots curve plotted with Cumulative Gaussian equation or Log(inhibitor) vs. response equation in GraphPad Prism.

`CCOC(=O)[C@@H]1CCCN(S(=O)(=O)c2ccc(S(=O)(=O)N(CC)CC)cc2)C1` [DX2-201, ethyl (R)-1-((4-(N,N-diethylsulfamoyl)phenyl)sulfonyl)piperidine-3-carboxylate] was tested, and the IC50 was 0.37 ± 0.06 µM.
